Experimental data from patent US20170058264A1, “FORMATION OF MULTICELLULAR TUMOROIDS AND USES THEREOF” (UNIVERSITY OF SOUTH FLORIDA, priority 2014, published 2017).
pIC50: −log10 of the molar value.

Key:
Type in all cases: cell-based
BT-474 SCTs = experiment: Lapatinib response of BT-474 SCTs cultured on Matrigel or FiSS, Presto Blue cell viability; details: 3 d old SCTs; examined after 72 hrs
Experimental: Cells (3×10^3) were cultured on a layer of Matrigel coated plate in the presence of growth medium supplemented with 10% Matrigel. Three days after culture, cells were treated with indicated concentrations of Lapatinib and examined after 72 hrs. Spheroids were stained with calcein AM and examined by fluorescent microscope.
To benchmark FiSS-tumoroids against Matrigel-based 3D-culture for prediction of clinical efficacy, 3 d old BT-474 SCTs (cultured on Matrigel or FiSS) were treated with Lapatinib and examined tumoroid formation (FIGS. 26A-26D) and cell viability (FIGS. 27A-27B). Although Matrigel induced numerous smaller size tumoroids compared to FiSS tumoroids, their response to Lapatinib was similar as shown in FIGS. 27A-27B.

BT474 tumoroids [1] = experiment: High-content analysis (Operetta) of Ki-67 immunostaining in BT474 tumoroids; details: different concentrations of Lapatinib; about 72 hrs
Experimental: Quantification of immunostaining was completed using Operetta.
To optimize quantification of high content imaging for BT474 tumoroids were incubated for 72 h and then imaged on the Operetta HCI System with a 20× objective. Single plane z-stacked images of BT474 tumoroids on scaffolds were stained with DAPI and images were acquired using the Operetta high content imaging system from Perkin Elmer. Representative fields were selected at 20× magnification and z-stacks of these fields were acquired with an interval of 2 um between each z-plane. Z-stacks were analyzed using the image processing software ImageJ (NIH). […] Using HCA we have quantified changes in Ki-67 expression in BT474 tumoroids treated with different concentrations of Lapatinib.

BT474 tumoroids [2] = experiment: Lapatinib response of BT474 tumoroids in monoculture or co-culture, cell viability by PrestoBlue assay; details: Homo sapiens, BT-474, 72 h, about 72 hours
Experimental: (§1) On day 2 after culturing, cells were treated with the indicated concentrations (μM) of Lapatinib for about 72 hours. Cell viability was measured by PrestoBlue® assay.
(§2) The sensitivity of tumoroids derived from monoculture or co-culture of BT474 and HCC1569 to Lapatinib was examined. Lapatinib is a dual small molecule tyrosine kinase inhibitor targeting EGFR and HER2. […] Similar results were obtained when established tumoroids were treated with Lapatinib.

HCC1569 tumoroids = experiment: Lapatinib response of HCC1569 tumoroids in monoculture or co-culture, cell viability by PrestoBlue assay; details: HCC1569 cultured in the presence of ECs and CAFs vs monoculture
Experimental: as §1, §2

BT474 tumoroids [3] = experiment: VEGF, IL-6 and TGF-β1 in day 5 culture supernatants of BT474 tumoroids by ELISA; details: co-cultured tumoroids; Lapatinib about 2.5 μM-5 μM; day 5 supernatants
Experimental: BT474 tumoroids were monocultured or co-cultured in the presence or absence of Lapatinib (2.5-10 μM) and the levels of VEGF, IL-6, and TGF-β1 in the day 5 culture supernatants were determined by ELISA. * p<0.05.
To identify and evaluate the biomarkers of clinical efficacy, both monoculture and co-culture tumoroids were treated with increasing concentrations of Lapatinib (about 0 to about 10 μM). Five days after culture, the supernatants of the culture were tested for levels of VEGF, IL-6, and TGF-β. […] BT474 tumoroids were mono-cultured or co-cultured in the presence or absence of Lapatinib (2.5-10 μM) and the levels of VEGF, IL-6, and TGF-β1 in the day 5 culture supernatants were determined by ELISA. * p<0.05.

[4] = biological target: BT474 co-cultured tumoroids; experiment: Ki-67 expression by immunohistochemistry and tumoroid formation in Lapatinib treated BT474 tumoroids; details: 72 hours
Experimental: Ki-67 can be used as a surrogate marker of clinical efficacy in cancer trials. Expression of Ki-67. Monoculture and Co-culture tumoroids were treated with increasing concentrations of Lapatinib (0-10 μM). Tumoroids were fixed and immunostained for […].

[5] = system: BT474 tumoroids (SCTs and MCTs); experiment: Quantibody Array (multiplexed sandwich ELISA) of factors in day 5 culture supernatants of BT474 SCTs and MCTs
Experimental: BT474 tumoroids (SCTs, blue bars and MCTs, red bars) were cultured in the presence or absence of Lapatinib (0.5-12.5 μM), as in FIGS. 9A-9B, and the levels of IL-6, IL-8, MCP-1 in the day 5 culture supernatants were determined by Sandwich ELISA (FIGS. 20-21). * p<0.05.
BT474 tumoroids (SCTs, blue bars and MCTs, red bars) were cultured in the presence or absence of Lapatinib (0.5-12.5 μM), as in FIGS. 9A-9B, and the levels of PDGF-BB, DKK-1, OPG in the day 5 culture supernatants were determined by Sandwich ELISA (FIGS. 20-21). * p<0.05.
BT474 tumoroids (SCTs, blue bars and MCTs, red bars) were cultured in the presence or absence of Lapatinib (0.5-12.5 μM), as in FIGS. 9A-9B, and the levels of MMP-3 in the day 5 culture supernatants were determined by Sandwich ELISA (FIGS. 20-21). * p<0.05.
Additionally, to characterize factors and molecules released in SCTs and MCTs culture, a human Quantibody Array (RayBiotech Inc.), which utilizes a multiplexed sandwich ELISA assay and enables detection of multiple proteins/factors simultaneously, was used. […] This list includes adhesion molecules (E-selectin, ICAM-1, P-Cadherin, VE-cadherin), \growth factors (aFGF, activin A, […] (AR), bFGF, bone morphogenic protein (BMP)-2, BMP-4, BMP-6, BMP-7, BMP-9, dickkopf-1 (DKK-1), IGF-1, osteoprotegerin (OPG), osteopontin (OPN), PDGF-BB, TGFβ1, TGFβ2, TGFβ3), chemokines (monocyte chemotactic protein 1 (MCP-1)), macrophage inflammatory protein (MIP)-1α, VCAM-1), cytokines (IL-1α, IL-1β, IL-6, IL-8, IL-11, IL-17, M-CSF), receptor activator of NFkB (RANK), osteoactivin, SDF-1α, TNF related activation induced cytokine (TRANCE)) and matrix metalloproteinases (MMPs), such as MMP-2, -3, -9, -13.
To determine whether any of these factors are expressed in SCTs and MCTs, we incubated QAH-BMA-1000 array with a pool of culture supernatants of BT474-SCTs and MCTs in quadruplets. Experiments were conducted using manufacturer's protocol. An appropriate positive control was used to normalize the signal intensity. […] These include, growth factors, such as PDGF-BB, OPG and DKK-1, chemokine such as MCP-1, IL-6 and IL-8, and protease MMP-3 (see e.g. FIGS. 23A-25.)
Lapatinib treated cultures were examined for factors that are found differentially expressed in MCTs, compared to SCTs.

[6] = MCTs, Lapatinib 0.5-12.5 μM, dose dependent

- Ki-67 expression (relative intensity, HCA) (BT474 tumoroids [1]): dose-dependent Ki-67 expression
- pIC50 (BT474 tumoroids [2]; BT474 cells cultured on 2D or FiSS (monoculture)): > 5.60
- pIC50 (BT474 tumoroids [2]; MCTs, in the presence of ECs and CAFs): < 5.00
- Ki-67 staining ([4]; Lapatinib 2.5 μM): completely abrogated
- tumoroid formation ([4]; Lapatinib 2.5 mM as printed): inhibited tumoroid formation
SMILES: CS(=O)(=O)CCNCc1ccc(-c2ccc3ncnc(Nc4ccc(OCc5cccc(F)c5)c(Cl)c4)c3c2)o1 [Lapatinib]
- response to Lapatinib (cell viability), Matrigel vs FiSS tumoroids (BT-474 SCTs): similar
- resistance to Lapatinib (HCC1569 tumoroids): increase in resistance
- secretion of IL-6 (BT474 tumoroids [3]): significantly decreased
- secretion of TGF-β (BT474 tumoroids [3]): significantly decreased
- secretion of VEGF (BT474 tumoroids [3]): significantly decreased
- reduction of MCP-1 expression ([5]; MCTs, 12.5 uM Lapatinib): ≤ 50%
- DKK-1 expression ([5]; MCTs, Lapatinib 0.5-12.5 μM): reduced significantly
- MMP-3 expression ([5]; MCTs, Lapatinib 0.5-12.5 μM): reduced only marginally
- IL-6 in culture supernatants [5, 6]: reduced to basal level
- IL-8 in culture supernatants [5, 6]: reduced to basal level
- PDGF-BB expression ([5]; SCTs and MCTs, Lapatinib 0.5-12.5 μM): did not alter
- MCP-1 expression ([5]; SCTs, Lapatinib 0.5-12.5 μM): abolished MCP-1 expression completely
